Each structure is given as a SMILES string.

Data set [1] can be described thus: Plasma concentration of (−)-halofenic acid during and after 30-day daily oral 400 mg arhalofenate. Format: in vivo, human. Here is the method:
Methods used in relation to FIGS. 1-2 showing the pharmacokinetic profile of (−)-halofenic acid were as follows:
Plasma proteins in human plasma samples containing of (−)-halofenic acid, an internal standard (I.S.) and heparin as the anticoagulant were precipitated with acetonitrile. The samples were vortex mixed, centrifuged and an aliquot was analyzed by reversed phase high performance liquid chromatography using a Phenomenex Polar RP column maintained at 45° C. The mobile phase was nebulized using heated nitrogen in a Z-spray source/interface and the ionized compounds were detected using a tandem quadrupole mass spectrometer.
The plasma concentrations were rounded to the nearest one-tenth μg/mL before the calculations. Plasma samples with concentrations below the quantifiable limit of 1.0 μg/mL (BQL) were assigned values of zero.

Data set [2] deals with gout patients. To be noted: monotherapy at 40, 80, 120, 160 and 240 mg/day; cited from earlier work.
The subject of data set [3] is healthy adult subjects. Briefly: Phase 1 multiple-dose study, serum uric acid after once daily oral dosing for 10 days. Format: in vivo, human. To be noted: all dose levels tested, FIG. 3 and Table 1. Here is the method: Methods used in relation to FIG. 3 showing reduction in serum uric acid in subjects over time following once daily dosing with arhalofenate were as follows.
A single centre Phase 1, placebo- and positive-controlled, double-blind, randomized, dose escalation study was conducted to evaluate the multiple-dose pharmacokinetics (PK) of (−)-halofenate administered as a daily dose orally for 10 days, at the protocol-specified doses in healthy adult subjects. A total of 119 subjects completed study treatment according to protocol: 6 subjects received (−)-halofenate 100 mg/day for 10 days; 6 subjects received (−)-halofenate 200 mg/day for 10 days; 9 subjects received (−)-halofenate 400 mg/day for 10 days; 20 subjects received (−)-halofenate 600 mg/day for 10 days; 10 subjects received (−)-halofenate 600 mg Enteric Coated (EC)/day for 10 days; 9 subjects received (−)-halofenate 800 mg EC/day for 10 days; 10 subjects received (−)-halofenate 1000 mg EC/day for 10 days; 24 subjects received placebo treatment daily for 10 days; and 25 subjects received naproxen 500 mg b.i.d. monotherapy for 7 days. In this study, serum uric acid was measured at screening and on Days 1, 3, 5, 7, 9, 14 and 21.

The test system of data set [4] is gout patients with hyperuricemia. In words: Randomized, double-blind, placebo-controlled 4-week monotherapy trial: sUA reduction and flare prevention. Format: in vivo, human. The following applies: for Flares considered moderate in severity by the investigator / Patients who reported flare during the Treatment Phase / Patients with flare that required medication (additional colchicine and/or NSAIDs) / Mean duration of Flares Requiring Treatment / Mean duration of Total flares / Mean sUA absolute change from baseline (Day 1) / Mean sUA percent change from baseline (Day 1): 4 weeks; for Mean sUA absolute change from baseline (Day 1) / Mean sUA percent change from baseline (Day 1): PP population; for Mean sUA percent change from baseline (Day 1): colchicine 0.6 mg background. The method, then: Study Design: This was a randomized, double-blind, placebo-controlled study of 400 mg and 600 mg arhalofenate administered daily for 4 weeks as monotherapy in patients with gout (per criteria of the American Rheumatism Association) with hyperuricemia. Patients using urate lowering therapy (ULT) must have been willing to discontinue treatment for the duration of the study. Patients with a recent history of an acute gout flare must have been symptom free for at least 1 week prior to screening. Upon successful completion of screening, patients entered into a minimum 3-week Run-in/Stabilization Phase. During this phase, patients on existing ULT were asked to temporarily discontinue their current therapy. Patients also started colchicine 0.6 mg once daily until the final study visit as prophylaxis to prevent potential gout flares. Patient who met final eligibility criteria were randomized (1:1:1) into the Treatment Phase to receive Placebo, arhalofenate 400 mg, or arhalofenate 600 mg. Each randomized patient took double-blind study medication daily for a period of four weeks beginning at Day 1 (Visit 3). Patients returned to the study site after 2 weeks at Visit 4 and then weekly at Visits 5 and 6 (Weeks 3 and 4). A Follow-up Visit (Visit 7) took place 2 weeks after the last dose of study medication. […] Patients with a recent history of an acute gout flare must have been symptom free for at least 1 week prior to both screening and randomization. Criteria for Evaluation: The primary efficacy analysis compared the percentage change in sUA from baseline to end of treatment between the treatment groups. In addition, gout flares were captured as special interest event and the incidence of gout flares (all flares and flares that required treatment), severity (as assessed either mild, moderate, or severe by the Principal Investigator), and duration (days) were compared between treatment groups.

Data set [5] deals with murine 3T3-L1 adipocytes. Briefly: Suppression of uric-acid induced inflammation in vitro. To be noted: 50-150 μM, uric acid 5 or 15 mg/dL, 3 or 7 days. Format: cell-based. Here is the method:
Differentiated murine 3T3-L1 adipocytes are cultured in vitro in 24 well plates. To the culture medium (−)-halofenic acid is added at a final concentration of 50-150 μM prior to the addition of uric acid at 5 mg/dL or 15 mg/dL and the culture continued for 3 or 7 days. A parallel culture of cells is conducted in the presence of a vehicle such as dimethylsulfoxide (DMSO). At the end of the culture period media is removed, cells are isolated and messenger RNA prepared. The levels of secreted cytokines representing a panel of pro-inflammatory cytokines including but not restricted to monocyte chemoattractant protein-1 (MCP-1), tumor necrosis factor α (TNF-α), interleukin-1β, (IL-1β), interleukin-6 (IL-6) and interleukin-12 (Il-12) are determined in the media isolated from the cells using commercially available cytokine assay kits. The levels of gene expression for the mRNAs for a panel of pro-inflammatory cytokines including but not restricted to monocyte chemoattractant protein-1 (MCP-1), tumor necrosis factor α (TNF-α), interleukin-1β, (IL-1β), interleukin-6 (IL-6) and interleukin-12 (Il-12) are determined using real-time PCR. […] A similar study is also conducted in primary mouse macrophages and human umbilical vein endothelial cells.

The test system of data set [6] is gout patients with hyperuricemia. In words: Open-label trial of arhalofenate in combination with febuxostat vs febuxostat alone: sUA reduction and flare prevention. In kind it is in vivo, human. The method, then:
Study Design: This was an open-label study to determine the sUA reduction and flare prevention with arhalofenate in combination with febuxostat and compared that with febuxostat alone in gout patients (per criteria of the American Rheumatism Association) with hyperuricemia when arhalofenate administered at 400 mg once daily orally for 2 weeks (Weeks 2-3) and then increased to 600 mg once daily orally for an additional 2 weeks (Weeks 4-5) in addition to 80 mg febuxostat once daily orally (Weeks 1-5). Patients with a recent history of an acute gout flare must have been symptom free for at least 1 week prior to screening.
All patients who met the screening criteria started a 2-week Run-in/Stabilization Phase at the same time as out-patient basis. During this phase, patients on existing urate lowering therapy were asked to discontinue their current therapy for the duration of the study. At the same time, patients also started colchicine 0.6 mg once daily as prophylaxis to prevent potential gout flares. Upon completing the Run-in/Stabilization Phase, patients were reassessed at Day −2 (Visit 2) to confirm the final eligibility for the Treatment Phase. The sUA at this visit must have been ≧8.0 mg/dL and ≦10 mg/dL to qualify for the Treatment Phase. In addition, all safety lab values must have met the eligibility criteria at this visit. Patients successfully meeting the eligibility criteria entered the study site for an in-clinic stay for a total of 37 consecutive days.
The Treatment Phase began on Day 1 and continued for 5 weeks until Day 35. The Treatment Phase consisted of 3 sequential drug dosing periods:
80 mg febuxostat orally once daily from Days 1 through 7 (Febuxostat Period).
80 mg febuxostat plus 400 mg arhalofenate orally once daily from Days 8 through 21 (Febuxostat plus 400 mg arhalofenate Period).
80 mg febuxostat plus 600 mg arhalofenate orally once daily from Days 22 through 35 (Febuxostat plus 600 mg arhalofenate Period).
In addition, all patients continued to receive 0.6 mg colchicine daily for gout flare prophylaxis.
Efficacy of febuxostat plus arhalofenate combination treatment was assessed by the proportion of patients achieving a sUA<6 mg/dL, <5 mg/dL, <4 mg/dL, and <3 mg/dL at Day 22 and Day 36. In addition, absolute and percent changes in sUA at Day 22 and Day 36 from baseline (Day 1) were also evaluated. Gout flares were captured as special interest event in this study. The incidence of gout flares, severity (as assessed either mild, moderate, or severe by the Principal Investigator), and duration (days) were compared between treatment periods.

The mark [7] stands for this setting: Day 8, after one week of daily 80 mg febuxostat.

On to `O=C(O)C(Oc1cccc(C(F)(F)F)c1)c1ccc(Cl)cc1` (single isomer, unassigned; (-)) [(−)-halofenic acid, (−)-4-chlorophenyl-(3-trifluoromethylphenoxy)acetic acid], for which the “Half-life of (−)-halofenic acid in plasma” value in data set [1] (daily oral 400 mg arhalofenate for 30 days, FIGS. 1-2) is recorded as “a long half-life with sustained drug levels present for several days after the final dose”. Moreover, the “Intraday plasma concentration profile” value in data set [1] (daily oral 400 mg arhalofenate, Day 15 and Day 30, FIG. 2) is listed as “a relatively constant intraday plasma concentration”.
Regarding `O=c1[nH]cnc2c(CN3C[C@H](CO)[C@@H](O)C3)c[nH]c12` [Ulodesine, 7-(((3R,4R)-3-hydroxy-4-(hydroxymethyl)pyrrolidin-1-yl)methyl)-3H-pyrrolo[3,2-d]pyrimidin-4(5H)-one], the “Serum uric acid in gout patients” value in data set [2] was “rapidly and significantly reduced serum uric acid”.
Turning to `CC(=O)NCCOC(=O)[C@H](Oc1cccc(C(F)(F)F)c1)c1ccc(Cl)cc1` [arhalofenate, (−)-(R)-(4-chloro-phenyl)-(3-trifluoromethyl-phenoxy)-acetic acid 2-acetylamino-ethyl ester], the “Reduction in serum uric acid over time” value in data set [3] was “gradual reduction in serum uric acid over a period of time at all dose levels tested, and in a dose dependent manner”. In addition, in data set [4] (400 mg daily), the “Flares considered moderate in severity by the investigator” value is recorded as 2 of 4, the Mean sUA absolute change from baseline (Day 1) was -1.4 mg/dL and the “Mean sUA percent change from baseline (Day 1)” value is −15.4%. Moreover, in data set [4] (400 mg daily, FIG. 4), the “Patients who reported flare during the Treatment Phase” value is 19.0% and the “Patients with flare that required medication (additional colchicine and/or NSAIDs)” value is given as 4.8%. Also, in data set [4] (400 mg daily, FIG. 5), the “Mean duration of Flares Requiring Treatment” value turned out to be 2.0 days and the “Mean duration of Total flares” value is on record as 1.3 days. In data set [4] (600 mg daily), the “Flares considered moderate in severity by the investigator” value is given as 0 of 2, the “Mean sUA absolute change from baseline (Day 1)” value was -2.3 mg/dL and the “Mean sUA percent change from baseline (Day 1)” value is listed as −23%. In data set [4] (600 mg daily, FIG. 4), the “Patients who reported flare during the Treatment Phase” value is given as 4.3% and the “Patients with flare that required medication (additional colchicine and/or NSAIDs)” value is recorded as 4.3%. In data set [4] (600 mg daily, FIG. 5), the “Mean duration of Flares Requiring Treatment” value is 1.0 days and the “Mean duration of Total flares” value worked out at 1.0 days. Also, in data set [4] (monotherapy, FIG. 4), the “Incidence of any flares (Total flare) and flares requiring treatment compared to placebo” value is “dose dependently reduced the incidence of any flares (Total flare) and flares requiring treatment compared to placebo”. Besides, in data set [4] (monotherapy, FIG. 5), the “Duration of all flares (any flares and flares requiring treatment)” value was “also reduced the duration of all flares”. In data set [5], the “Uptake of uric acid into 3T3-L1 adipocytes” value is listed as “prevents the uptake of uric acid into 3T3-L1 adipocytes”; the “Uric acid induced inflammatory response (expression and secretion of pro-inflammatory cytokines)” value is listed as “suppresses the uric acid induced inflammatory response”.
Regarding `Cc1nc(-c2ccc(OCC(C)C)c(C#N)c2)sc1C(=O)O` [febuxostat, 2-(3-cyano-4-isobutoxyphenyl)-4-methyl-1,3-thiazole-5-carboxylic acid], in data set [6] (1 week of febuxostat only period (80 mg), colchicine 0.6 mg background), the “Patients who experienced gout flares” value amounted to 2 patients. Besides, in data set [6] (setting [7]), the “Patients who reached sUA <4 mg/dL” value was determined as 9%, the “Patients who reached sUA <5 mg/dL” value worked out at 55% and the “Patients who reached sUA target of <6 mg/dL” value was 100%. Besides, the “Patients who reported flare, adjusted by duration of treatment” value in data set [6] (febuxostat only period, FIG. 6) amounted to 18.2 % patients/week. Besides, in data set [6] (febuxostat only period, FIG. 7), the “Mean duration of the gout flares” value stood at 6.5 days.
